# Columns and labels:
# Format in all cases: in vivo
# [1] = system: angiotensin II-continuous infusion SD rat; assay: Angiotensin II-continuous infusion rat model of cardiac fibrosis and cardiomegaly
# Experimental: Angiotensin II was continuously infused to an 8 week-old male SD rat, and the action of luteolin glycoside (luteolin-7-O-glucoside was used) to cardiac fibrosis and cardiomegaly in the acceleration state of oxidative stress was investigated. For the control group, rats were normally raised. For the angiotensin II group (Ang II group), an angiotensin II-continuous infusion pump was implanted subcutaneously in the rat, and continuous infusion was performed for 7 days. For the luteolin glycoside simultaneous-administration group (Ang II+LMG group), a luteolin glycoside-blended feed (3.6 g of luteolin monoglycoside (LMG) was blended per 10 kg of feed) was fed for 3 weeks, then an angiotensin II-continuous infusion pump was implanted subcutaneously, and continuous infusion was performed for 7 days.
# (§1) The blood pressure was measured at the seventh day, the degree of the ventricular wall thickness was evaluated with echocardiographic examination, then the heart was removed, and the weights of the heart and the ventricle were measured. The reactive oxygen was evaluated with hydroethidine staining, and the degree of fibrosis was evaluated with Masson's trichrome staining. Gene expressions of the fibrosis marker, and the heart failure marker in the ventricular tissue were evaluated with real time PCR.
# [2] = system: TGF-β1 (transforming growth factor) gene expression; assay: Real time PCR of fibrosis marker gene TGF-β1 in ventricular tissue, angiotensin II rat model; details: corrected with GAPDH, Ang II + luteolin glycoside, FIG. 6
# Experimental: (§2) Angiotensin II was continuously infused to an 8 week-old male SD rat, and the action of luteolin glycoside (luteolin-7-O-glucoside was used) to cardiac fibrosis and cardiomegaly in the acceleration state of oxidative stress was investigated. For the control group, rats were normally raised. For the angiotensin II group (Ang II group), an angiotensin II-continuous infusion pump was implanted subcutaneously in the rat, and continuous infusion was performed for 7 days. […]
# as §1
# (§3) RNA was extracted from the ventricular tissue, and expression amounts of various genes were evaluated with real time PCR.
# [3] = system: CTGF (connective tissue growth factor) gene expression; assay: Real time PCR of fibrosis marker gene CTGF in ventricular tissue, angiotensin II rat model; details: corrected with GAPDH, Ang II + luteolin glycoside, FIG. 6
# Experimental: as §2, §1, §3
# [4] = system: ANP (atrial natriuretic peptide) gene expression; assay: Real time PCR of cardiomegaly/heart failure marker gene ANP in ventricular tissue, angiotensin II rat model; details: corrected with GAPDH, Ang II + luteolin glycoside, FIG. 7
# Experimental: as §2, §1, §3
# [5] = system: BNP (brain natriuretic peptide) gene expression; assay: Real time PCR of cardiomegaly/heart failure marker gene BNP in ventricular tissue, angiotensin II rat model; details: corrected with GAPDH, Ang II + luteolin glycoside, FIG. 7
# Experimental: as §2, §1, §3
# [6] = system: ApoE gene-deficient female mouse (ApoE−/−); assay: Acute aneurysm model by angiotensin II-continuous infusion in ApoE gene-deficient mouse
# Source text: Angiotensin II was continuously infused (for 16 weeks to 20 weeks) to a 12 week-old ApoE gene-deficient female mouse (ApoE−/−) (about 25 g of body weight) whereby to prepare an acute aneurysm model, and the action of luteolin glycoside (luteolin-7-O-glucoside was used) was investigated. For the control group (n=5), mice were normally raised (saline was continuously infused). For the angiotensin II group ([…]), an angiotensin II-continuous infusion pump was implanted subcutaneously in the mouse, and continuous infusion was performed for 4 weeks. For the luteolin glycoside simultaneous-administration group (Ang II+luteolin group), a luteolin glycoside-blended feed (0.055% of luteolin-7-O-glucoside was blended per feed) was fed for 3 weeks, then an angiotensin II-continuous infusion pump was implanted subcutaneously, and continuous infusion was performed for 4 weeks.
# When the mouse was 20 weeks old, the blood pressure and body weight were measured, then the heart, the kidney and the aorta were removed, and generation of aneurysm was observed.
# [7] = Plasma luteolin concentration after oral administration to rats; details: male SD rat, 93 mg/kg PO; in comparison to luteolin (51 mg/kg PO) and luteolin-7-O-apiosyl glucoside (175 mg/kg PO), same aglycone amount; 0.5-8 hours; FIG. 12
# Experimental: Luteolin (51 mg/kg, PO), luteolin-7-O-glucoside (93 mg/kg, PO) and luteolin-7-O-apiosyl glucoside (175 mg/kg, PO) were orally administered to rats (8 weeks old, male SD rat), the blood was collected just before the administration, and at 0.5 hours, 1 hour, 2 hours and 8 hours after the administration from the tail vein, and the plasma luteolin concentration was measured. Meanwhile, the doses of each of the luteolin and a glycoside thereof were the same in terms of the amount of luteolin that is an aglycone.
smiles,measurement,setting,value
"O=c1cc(-c2ccc(O)c(O)c2)oc2cc(O[C@@H]3O[C@H](CO)[C@@H](O)[C@H](O)[C@H]3O)cc(O)c12 [luteolin glycoside, luteolin-7-O-glucoside]",blood pressure increased by angiotensin II-continuous administration,"[1]; LMG-blended feed (3.6 g per 10 kg feed) 3 weeks, then Ang II infusion 7 days, seventh day, FIG. 1",did not lower
same,fibrosis of the ventricular wall by angiotensin II,"[1]; LMG-blended feed, Ang II 7 days, Masson's trichrome staining, FIG. 5",remarkably suppressed
same,ventricular wall thickening by angiotensin II administration,"[1]; LMG-blended feed, Ang II 7 days, echocardiographic examination, FIG. 2",significantly suppressed
same,generation of reactive oxygen in the ventricular wall by angiotensin II,"[1]; LMG-blended feed, Ang II 7 days, hydroethidine staining, FIG. 4",remarkably suppressed
same,gene expression of TGF-β1 in ventricular tissue,[2],suppression of the expression
same,gene expression of CTGF in ventricular tissue,[3],suppression of the expression
same,gene expression of ANP in ventricular tissue,[4],suppression of the expression
same,gene expression of BNP in ventricular tissue,[5],suppression of the expression
same,blood pressure,"[6]; 0.055% luteolin-7-O-glucoside feed 3 weeks, then Ang II infusion 4 weeks, 20 weeks old, FIG. 8",not recognized
same,body weight,"[6]; 0.055% luteolin-7-O-glucoside feed, Ang II 4 weeks, 20 weeks old, FIG. 8",not recognized
same,aneurysm formation (appearance),"[6]; 0.055% luteolin-7-O-glucoside feed, Ang II 4 weeks, FIG. 9",definitely suppressed
same,diameter of aneurysm,"[6]; 0.055% luteolin-7-O-glucoside feed, Ang II 4 weeks, FIG. 10",decreased
same,rupture of the arterial wall elastic fiber,"[6]; 0.055% luteolin-7-O-glucoside feed, Ang II 4 weeks, FIG. 11",suppressed
same,oral absorption (plasma luteolin concentration),[7],remarkably higher

# Reference: patent US9326990B2, “Heart failure suppressing agent” (THE UNIVERSITY OF TOKYO, priority 2011, dated 2016)
